# Patent publication US5358959A, “Methods for treating arteriosclerosis” (President and Fellows of Harvard University, priority 1993, dated 1994)
# Read-outs that look alike come from different tables or passages of the source.
# Experiments:
# [1] = test system: Rat vascular smooth muscle cells; assay: cells; assay type: cell-based; conditions: for inhibition of DNA synthesis by other inhibitors of the Ca++ activated K channel: bFGF-stimulated
# Experimental: (§1) DNA synthesis assessed by the uptake of [3H]thymidine: Cells are grown in either 48 or 96 wells plates (Costar, Cambridge, Mass.) at 10^4 and 0.8 10^3 cells per well, respectively, and grown in Dubelcco's modified Eagle's medium (DME, Gibco, Grand Island, N.Y.) supplemented with 10% heat-inactivated calf serum; they are kept at 37° C. in 5% CO2. When they reach confluence, usually between 3 and 4 days, the medium is replaced with DME 0.5% serum to make them quiescent, and mitogenesis assays are performed 24 hours later.
# (§2) Quiescent cells are exposed to a mitogenic stimulus, such as 10% serum, PDGF (Sigma Co. St. Louis, Mo.), bFGF (Upstate Biotechnologies, Lake Placid, N.Y.), or other appropriate mitogen according to the cell line, and 3 hours 1 later μCi/ml of [3H]thymidine (Dupont, Billerica, Mass.) is added to the wells, and the cells maintained at 37° C./5% CO2 for additional 21 hours. Then the cells are washed 3 times with DME medium and the acid-precipitable radioactivity is extracted with cold 10% TCA (Sigma, Co). After neutralization with 0.3N NaOH (Sigma Co.), aliquots are counted in a Packard Tri-Carb Scintillation counter (Packard Instrument, Downer's Grove, Ill.).
# Rat vascular smooth muscle cells (murine cell line): Quiescent cells were stimulated with purified growth factors (PDGF and bFGF, […]) and synthesis of DNA was assessed by the incorporation of [3H]thymidine measured 24 hours later.
# Cells were stimulated using […] bFGF. […] (FIG. 2)
# Other antimycotics were tested for their inhibition of bFGF-stimulated DNA synthesis in rat vascular smooth muscle cells.
# [2] = test system: Bovine endothelial (BAEC); assay: Cell growth (flask surface covered by the cell monolayer), bovine endothelial cells; assay type: cell-based; conditions: CLT 10 μM; 48 hs; DME 10% calf serum; control 90±2%
# Experimental: (§3) Measurement of cell density in culture plates: Cells of a specific test cell line are seeded at precisely the same low density in culture plates and incubated for approximately 12 hours in DME 10% serum, or other culture medium depending on the cell line tested. […] Alternatively, the cells can be detached from the plate by incubation with trypsin (Sigma, Co.) […] in ethylene diaminotetraacetic acid (ECTA; Sigma, Co); then the cells are counted in an hemocytometer chamber (Fisher, Pittsburgh, Pa.).
# (§4) After 48 hs cell growth was assessed by optic miscroscopy calculating the surface of the culture flask covered by the cell monolayer.
# [3] = test system: human umbilical vein (HUVEC); assay: Cell growth (flask surface covered by the cell monolayer), human umbilical vein cells; assay type: cell-based; conditions: CLT 10 μM; 48 hs; DME 10% fetal calf serum; control 90±2%
# Experimental: as §3, §4
# [4] = molecular target: T1, Ca^++ activated K channel (Homo sapiens, UniProt O15554); assay: Inhibition of the Ca++ activated K channel of human erythrocytes (86Rb influx, K efflux); assay type: cell-based; conditions: for order of inhibitory potency, Ca++ activated 86Rb influx / inhibition of Ca++ activated 86Rb influx by other antimycotics and related compounds: human erythrocytes, FIG. 4
# T1 construct: endogenous in cells; host or cells: human erythrocytes (washed red blood cells from heparinized blood)
# Experimental: Preparation of Human Red Blood Cells: Blood is collected in heparinized tubes and centrifuged in a Sorvall centrifuge (RB 5B, Du Pont Instruments,Newtown, Conn.) at 5° C. for 10 minutes at 3000 g. Plasma and buffy coat are carefully removed and the cells washed four times with a washing solution containing 150 mM choline chloride (Sigma Co), 1 mM MgC12 (Sigma Co), 10 mM Tris-MOPS (Sigma, Ca), pH 7.4 at 4° C.(CWS). An aliquot of cells is then suspended in an approximately equal volume of CWS, and from this original cell suspension hematocrit (Hct) and hemoglobin (optical density at 540 nm) are determined.
# Methods to Test Inhibitors of the Ca^++ Activated K: To test inhibitors of the Ca^++ activated K channel, the channel is activated using the calcium ionophore A23187 (Chalbiochem).
# By Atomic Absorption Spectrometry: Washed human erythrocyte are suspended at an hematocrit =1% in CWS containing 0.150 mM CaCl2 (Sigma Co) Aliquots of 1 ml are removed at 0, 3 and 5 minutes, layered on top of 0.3 ml of the oil n-butyl phthalate (Fair Lane, N.J.) placed in an Eppendorf microtube (Fisher) and then centrifuged in a micro centrifuge for 20 seconds. At time 5.30 minutes, ionophore A23187 (1 μM final concentration) is added and samples removed and spin down through phthalate at times 6, 7, 8 and 9 minutes. The supernatant on top of the oil layer is removed and its K+ concentration is measured by atomic absorption spectrometry using a Perking Elmer model 5000 spectrometer (Perkin Elmer Corp., Norwolk, Conn.). The efflux of K+ (mmol/1 cells/h) in the absence and presence of the inhibitor is calculated from the slope of the curves relating the K+ concentration in the supernatants (mmol/1 cells) vs. time (min.).
# By radioisotopic measurement of ^86 Rb influx. The incubation medium is the same but contains 2 mM KCl and 1 μCi/ml of the radioactive tracer ^86 Rb. After spinning the samples through the phthalate layer, the tubes are rapidly frozen (-80° C.) by immersion in methanol-dry ice, the tips of the tubes containing the packed red cells cut, and counted in a Packard Gamma Counter.
# Swiss 3T3 = assay: Proliferative response of quiescent 3T3 cells to conditioned media of MAC treated endothelial cells; assay type: cell-based, murine; conditions: 10 μM CLT; FIG. 5
# Experimental: (§5) When endothelial cells (EC) in culture (both BAEC and HUVEC) are treated with terminal complement components to form the MAC (membrane attack complex of complement), they release into the culture medium a potent mitogenic activity that stimulates the proliferation of quiescent cells used as indicators of the mitogens. Both, quiescent Swiss 3T3 and vascular smooth muscle cells are stimulated by the mitogens released form EC in response to the MAC (FIG. 5; Halperin et al. unpublished observation). Moreover, immunoprecipitation with specific antibodies has documented that both PDGF and bFGF released from the EC contribute in approximately equal proportion to the mitogenic activity induced by the MAC (data not shown).
# [5] = test system: vascular smooth muscle cells; assay: Proliferative response of vascular smooth muscle cells to conditioned media of MAC treated endothelial cells; assay type: cell-based; conditions: 10 μM CLT; FIG. 5
# Experimental: as §5
# Swiss 3T3 cells = assay: DNA synthesis ([3H]thymidine incorporation) in normal fibroblasts; assay type: cell-based, murine
# Experimental: as §1, §2
# Swiss 3T3 cells (murine fibroblast cell line): Quiescent cells were stimulated with purified growth factors (PDGF and bFGF, […]) and synthesis of DNA was assessed by the incorporation of [3H]thymidine measured 24 hours later.
# endothelial cells = assay: Proliferation of endothelial cells (general statement); assay type: cell-based; conditions: for inhibition of proliferation of endothelial cells: specific inhibitors of the Ca++ activated potassium channel
# [6] = test system: vascular smooth muscle cells; assay: Proliferation of vascular smooth muscle cells (general statement); assay type: cell-based; conditions: for inhibition of proliferation of vascular smooth muscle cells: specific inhibitors of the Ca++ activated potassium channel
# [7] = test system: testicular and adrenal synthesis of steroid hormones; conditions: cited from earlier work
# cell proliferation = assay: Cell proliferation with inhibitors of other transport systems (general statement); assay type: cell-based; conditions: inhibitors of other transport systems activated by mitogens
# [8] = 60 μmol A23187/L cell and 100 μM CaCl2
compound,measurement,setting,value
"Clc1ccccc1C(c1ccccc1)(c1ccccc1)n1ccnc1 [CLT, clotrimazole]",dose response of inhibition of DNA synthesis,[1],Inhibition was dose dependent
same,inhibition of DNA synthesis,[1],complete inhibition
same,inhibition of PDGF stimulated DNA synthesis,[1],completely inhibited
same,inhibition of bFGF stimulated DNA synthesis,[1],completely inhibited
same,"order of inhibitory potency, bFGF-stimulated DNA synthesis",[1],CLT more potent than ECZ
same,"reversibility of the inhibition of DNA synthesis (toxic, non-specific effect)",[1],reversed by removing CLT
same,inhibition of bFGF-stimulated DNA synthesis,[1]; 10 µM,inhibited DNA synthesis
same,inhibition at 1 µM,"[1]; Rattus norvegicus, read-out: inhibition of DNA synthesis",45%
same,flask surface covered by cells,[2],less than 10%
same,flask surface covered by cells,[3],less than 10%
same,inhibition of Ca++ activated 86Rb influx,[4]; [8],markedly inhibited
same,inhibition of Ca++ activated K efflux,[4]; [8],markedly inhibited
same,"order of inhibitory potency, Ca++ activated 86Rb influx",[4],clotrimazole more than miconazole
same,inhibition of proliferative response to mitogens released from EC by MAC,Swiss 3T3,completely inhibited
same,inhibition of proliferative response to mitogens released from EC by MAC,[5],completely inhibited
same,inhibition of PDGF stimulated DNA synthesis,"Swiss 3T3 cells; 10 μM CLT, PDGF, 5 μM, 24 hours",completely inhibited
same,inhibition of bFGF stimulated DNA synthesis,"Swiss 3T3 cells; 10 μM CLT, bFGF, 5 μM, 24 hours",completely inhibited
same,"reversibility of the inhibition of DNA synthesis (toxic, non-specific effect)",Swiss 3T3 cells; removing CLT and re-stimulating with the growth factor,reversed by removing CLT
"Clc1ccc(COC(Cn2ccnc2)c2ccc(Cl)cc2Cl)cc1 (centres unmarked) [ECZ, econazole]","order of inhibitory potency, bFGF-stimulated DNA synthesis","[1]; 10 μM, FIG. 3",ECZ more potent than MCZ
same,inhibition of bFGF-stimulated DNA synthesis,"[1]; antimycotics at 10 μM, FIG. 3",inhibited DNA synthesis
same,"order of inhibitory potency, Ca++ activated 86Rb influx",[4],both of these were more than econazole
"CC(=O)N1CCN(c2ccc(OCC3COC(Cn4ccnc4)(c4ccc(Cl)cc4Cl)O3)cc2)CC1 (centres unmarked) [Ketoconazole, ketoconazole]",usefulness for inhibiting endothelial cell proliferation,"endothelial cells; ketoconazole, no data given",not useful
same,usefulness for inhibiting smooth muscle cell proliferation,"[6]; ketoconazole, no data given",not useful
same,treatment of prostate cancer,[7]; by blocking steroid synthesis,effective in treating some prostate cancers
same,plasma testosterone,[7]; hormonal adjuvant for prostate cancer treatment,reduces plasma testosterone to castration levels
same,"testicular and adrenal synthesis of steroid hormones, including testosterone",[7]; in high doses,appears to inhibit
"Clc1ccc(COC(Cn2ccnc2)c2ccc(Cl)cc2Cl)c(Cl)c1 (centres unmarked) [MCZ, miconazole]","order of inhibitory potency, bFGF-stimulated DNA synthesis","[1]; 10 μM, FIG. 3",ECZ more potent than MCZ
same,inhibition of bFGF-stimulated DNA synthesis,"[1]; antimycotics at 10 μM, FIG. 3",inhibited DNA synthesis
same,"order of inhibitory potency, Ca++ activated 86Rb influx",[4],both of these were more than econazole
N=C(N)NC(=O)c1nc(Cl)c(N)nc1N [amiloride],inhibition of cell proliferation,cell proliferation,do not inhibit cell proliferation
OC(Cn1cncn1)(Cn1cncn1)c1ccc(F)cc1F [fluconazole],inhibition of Ca++ activated 86Rb influx by other antimycotics and related compounds,[4],no inhibition
Cc1ncc([N+](=O)[O-])n1CCO [metronidazole],inhibition of Ca++ activated 86Rb influx by other antimycotics and related compounds,[4],only marginal
Cc1ncc([N+](=O)[O-])n1CC(O)CCl (centres unmarked) [ornidazole],inhibition of Ca++ activated 86Rb influx by other antimycotics and related compounds,[4],no inhibition
C[C@@H]1O[C@@H](O[C@H]2C[C@@H](O)[C@]3(CO)[C@H]4[C@H](O)C[C@]5(C)[C@@H](C6=CC(=O)OC6)CC[C@]5(O)[C@@H]4CC[C@]3(O)C2)[C@H](O)[C@H](O)[C@H]1O [ouabain],inhibition of cell proliferation,cell proliferation,do not inhibit cell proliferation
CCS(=O)(=O)CCn1c([N+](=O)[O-])cnc1C [tinidazole],inhibition of Ca++ activated 86Rb influx by other antimycotics and related compounds,[4],no inhibition
Charybdotoxin,inhibition of DNA synthesis by other inhibitors of the Ca++ activated K channel,[1]; FIG. 3,failed to inhibit DNA synthesis
same,inhibition of proliferation of endothelial cells,endothelial cells,do not inhibit proliferation
same,inhibition of proliferation of vascular smooth muscle cells,[6],do not inhibit proliferation
kaliotoxin: specific inhibitors of the Ca^++ activated potassium channel,inhibition of DNA synthesis by other inhibitors of the Ca++ activated K channel,[1]; FIG. 3,failed to inhibit DNA synthesis
same,inhibition of proliferation of endothelial cells,endothelial cells,do not inhibit proliferation
same,inhibition of proliferation of vascular smooth muscle cells,[6],do not inhibit proliferation
